PMC4297936 (Redox Biology, 2014)

Legend:
[1] = target: T1, mitochondrial complex I (NADH: ubiquinone oxidoreductase) (Mus musculus, UniProt P03888+Q91WD5+Q9DC70); assay: NADH: ubiquinone oxidoreductase activity; type: cell-based; settings: read-out: % inhibition at 20 μM
[2] = target: mitochondrial complex II (succinate: ubiquinone oxidoreductase) (Mus musculus, UniProt Q8K2B3+Q9CQA3+Q9CXV1+Q9CZB0); assay: succinate: ubiquinone oxidoreductase activity, DCPIP reduction; type: biochemical
[3] = target: T1, mitochondrial complex I (NADH: ubiquinone oxidoreductase); assay: NADH: ubiquinone oxidoreductase activity; type: biochemical

Sequence of mitochondrial complex II (succinate: ubiquinone oxidoreductase) (Q8K2B3 43-664): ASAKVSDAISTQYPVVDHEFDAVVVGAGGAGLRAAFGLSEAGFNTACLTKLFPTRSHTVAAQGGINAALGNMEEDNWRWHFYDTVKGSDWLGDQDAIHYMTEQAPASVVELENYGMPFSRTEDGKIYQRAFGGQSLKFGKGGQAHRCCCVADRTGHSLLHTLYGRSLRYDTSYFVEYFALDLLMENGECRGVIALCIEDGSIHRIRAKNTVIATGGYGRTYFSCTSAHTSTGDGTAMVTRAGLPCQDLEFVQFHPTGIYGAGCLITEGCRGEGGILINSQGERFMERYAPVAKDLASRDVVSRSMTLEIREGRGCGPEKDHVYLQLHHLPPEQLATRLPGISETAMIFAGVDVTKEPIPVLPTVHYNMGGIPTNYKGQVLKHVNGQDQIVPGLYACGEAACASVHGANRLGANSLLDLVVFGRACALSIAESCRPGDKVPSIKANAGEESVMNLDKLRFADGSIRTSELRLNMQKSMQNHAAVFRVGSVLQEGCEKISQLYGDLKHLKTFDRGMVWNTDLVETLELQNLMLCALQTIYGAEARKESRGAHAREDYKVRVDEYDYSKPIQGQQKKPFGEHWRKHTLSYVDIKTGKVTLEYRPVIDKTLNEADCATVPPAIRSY
Sequence of mitochondrial complex II (succinate: ubiquinone oxidoreductase) (Q9CQA3 31-282): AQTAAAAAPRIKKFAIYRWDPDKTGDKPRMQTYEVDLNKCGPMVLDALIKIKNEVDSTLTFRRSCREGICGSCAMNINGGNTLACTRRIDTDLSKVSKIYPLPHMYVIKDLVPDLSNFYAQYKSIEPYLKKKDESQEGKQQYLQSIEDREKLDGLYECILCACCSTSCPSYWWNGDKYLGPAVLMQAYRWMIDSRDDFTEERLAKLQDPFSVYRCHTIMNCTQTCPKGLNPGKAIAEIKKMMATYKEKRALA
Sequence of mitochondrial complex II (succinate: ubiquinone oxidoreductase) (Q9CZB0 30-169): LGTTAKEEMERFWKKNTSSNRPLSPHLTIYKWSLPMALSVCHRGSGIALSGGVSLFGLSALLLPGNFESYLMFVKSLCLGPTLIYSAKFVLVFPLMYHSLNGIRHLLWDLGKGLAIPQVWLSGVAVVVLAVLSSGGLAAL
Sequence of mitochondrial complex II (succinate: ubiquinone oxidoreductase) (Q9CXV1 57-159): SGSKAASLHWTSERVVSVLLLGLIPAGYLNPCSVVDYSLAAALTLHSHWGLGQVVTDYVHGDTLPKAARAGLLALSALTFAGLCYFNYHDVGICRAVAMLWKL

`C=C(C)[C@H]1Cc2c(ccc3c2O[C@@H]2COc4cc(OC)c(OC)cc4[C@@H]2C3=O)O1` [ROT, rotenone] showed an inhibition at 20 µM [1] of about 50%.
In the case of `NN` [HzN, hydrazine], the IC50 [2] is reported as about 30 µM.
With `O=C1Nc2ccc(Cl)cc2[C@@](C#CC2CC2)(C(F)(F)F)O1` [EFV, efavirenz] the IC50 [3] was about 30 µM.
